Reference: patent US20040003424A1, “Transgenic cardiomyocytes with controlled proliferation and differentiation” (Board of Regents, The University of Texas System, priority 2002, published 2004)
No end group written: not given here.

Key:
Assay type in all cases: cell-based, mouse
NkL-TAg cells = assay: Induction of differentiation of NkL-TAg cells, sarcomeric α-actinin immunocytochemistry; settings: for sarcomere formation as assessed by α-actinin immunocytochemistry: NkL-TAg cells prior to depletion of TAg; for induction of sarcomere formation: NkL-TAg cells after removal of TAg, in differentiation medium (5% horse serum, insulin, transferrin, selenium)
Method: (§1) Cell Culture. Cells were isolated from sub-endocardial tumor-like structures in the hearts of transgenic mice as previously described with some modifications (Paradis et al, 1996). Briefly, dissected tissues were minced and dissociated using an enzyme mix containing 0.2% […] (Worthington) and 0.6 mg/ml of pancreatin (Sigma). Cardiac cells derived from Nk-TAg and NkL-TAg mice were maintained in DMEM/F12 media supplemented with 100 IU/ml penicillin, 100 μg/ml streptomycin, 2 mM Lglutamine, and 10% fetal bovine serum (FBS) on plates coated with […] fibronectin and 0.1% 2 gelatin. Cloning cylinders were used to harvest cell clones. Cell growth curves were generated by plating 1.5×10^5 or 2×10^5 cells (as indicated) in growth medium onto 100 mm plates and counting total cell number every 24 hours for 5 days. Differentiation medium contains DMEM/F12 supplemented with 100 IU/ml penicillin, 100 μg/ml streptomycin, 2 mM L-glutamine, 5% heat inactivated horse serum, […], […] and 6.7 ng/ml sodium selenite.
Histochemical Analysis. Heart tissue was fixed in 10% phosphate-buffered formalin and stained with hematoxylin-eosin. Nk-TAg and NkL-TAg cells were cultured on coverslips and fixed for 10 minutes with either −20° C. methanol or 4% paraformaldehyde for immunohistochemistry. Blocking was performed by incubating fixed cells with 1.5% bovine serum albumin and 10% normal goat serum in PBS for 20 minutes. […] Secondary antibodies conjugated to either FITC or Texas Red (1:200, Vector Labs) were diluted in PBS and incubated for 30 minutes at room temperature. In some cases, nuclei were co-stained with DAPI (10 mg/ml) for 1 minute. Coverslips were mounted with Vectashield (Vector Laboratories) and fluorescence or confocal images were captured using Leica DMRXE or Zeiss 3.95 microscopes, respectively.
Viral Infection. Cells were infected with recombinant adenoviruses (Ad) at a multiplicity of infection (MOI) of 100 for 3 to 12 hrs. The medium was replaced with growth medium, and NkL-TAg cells were cultured for the indicated times before analyses. Recombinant adenoviruses were obtained from the following sources: Ad-Cre recombinase (Ad-Cre) was provided by Dr. Frank Graham (McMaster University) (Anton and Graham, 1995); GATA4 (Ad-GATA4), Nkx2.5 (Ad-Nkx2.5), MEK6 (Ad-MEK6), and GFP (Ad-GFP) were generated using the “Easy-Track” system as described (He et al., 1998); antisense HDAC4 and HDAC5 (Ad-HDAC4 or 5), expressing coding regions of HDAC genes in reverse orientation, were provided by Chun Zhang; MEF2C (Ad-MEF2C) was provided by Rebekka Nicol (HDAC 4/5 and MEF2c viruses were generated using pAC-CMV vector); constitutively active calcineurin (Ad-CnA), IGF-I receptor (Ad-IGFI), constitutively active CaMKI (Ad-CaMKI), β-galactosidase (Ad-LacZ) were generated by Dr. Robert Gerard (UT Southwestern) and were constructed using an in vitro Cre-lox recombination system (Aoki et al., 1999; Ng et al. 1999).

Nk-TAg cells [1] = assay: α-actinin immunohistochemistry and sarcomere assembly in Nk-TAg cells; settings: for assembly of sarcomeres: hypertrophic agents added (20 nM ET-1, 100 mM [sic] PE, 1 mM [sic] angiotensin II)
Method: Histochemical Analysis. Heart tissue was fixed in 10% phosphate-buffered formalin and stained with hematoxylin-eosin. Nk-TAg and NkL-TAg cells were cultured on coverslips and fixed for 10 minutes with either −20° C. methanol or 4% paraformaldehyde for immunohistochemistry. Blocking was performed by incubating fixed cells with 1.5% bovine serum albumin and 10% normal goat serum in PBS for 20 minutes. Primary antibodies were incubated for 30-60 minutes in 1.5% bovine serum albumin in PBS as follows: monoclonal anti-myosin (smooth) (1:100, Sigma), polyclonal antimyosin (skeletal) (1:100, Sigma), monoclonal anti-α-smooth muscle actin (1:100, Sigma), monoclonal anti-skeletal myosin (slow) (1:100, Sigma), polyclonal anti-connexin 43 (1:100, Sigma), monoclonal anti-α-sarcomeric actin clone 5C5 (1:100, Sigma), monoclonal anti-desmin (1:100, Sigma), monoclonal anti-calponin (1:100, Sigma), monoclonal anti-α-actinin (sarcomeric) clone EA-53 (1:200, Sigma), monoclonal anti-SV40 T antigen (1:100, Santa Cruz). Secondary antibodies conjugated to either FITC or Texas Red (1:200, Vector Labs) were diluted in PBS and incubated for 30 minutes at room temperature. In some cases, nuclei were co-stained with DAPI (10 mg/ml) for 1 minute. Coverslips were mounted with Vectashield (Vector Laboratories) and fluorescence or confocal images were captured using Leica DMRXE or Zeiss 3.95 microscopes, respectively.
Drug treatment. Drugs were added into cell culture media as indicated at the following concentrations: 100 mM phenylephrine (PE), 10 mM norepinephrine (NE), 10 ng/ml recombinant human transforming growth factor-β1 (TGFβ1) (R&D Systems), 1 mM dynorphin-β (Peninsula Laboratories), 1 mM trans- or cis-retinoic acid (Sigma), 15 ng/ml bone morphogenetic protein (BMP)-2/4 (Genetics Institute, Cambridge, Mass.), 1 mM angiotensin II (R&D Systems), 20 nM endothelin-1 (ET-1) (R&D Systems), 100 ng/ml insulin-like growth factor I (IGF-I) (Roche), 5-azacytidine (Sigma), and 10 mg/ml mitomycin C (Sigma).

Nk-TAg cells [2] = assay: Proliferation of Nk-TAg cardiac cell lines; settings: drug added to the growth medium; mitomycin C 10 mg/ml as printed
Method: as §1
Drug treatment. […]

Compound	sarcomere formation as assessed by α-actinin immunocytochemistry (NkL-TAg cells)	other results
bFGF: basic fibroblast growth factor	no effect	–
CC1=C(/C=C/C(C)=C/C=C/C(C)=C/C(=O)O)C(C)(C)CCC1 [trans-retinoic acid]	no effect	–
TGFb1: recombinant human transforming growth factor-β1 (R&D Systems)	no effect	–
endothelin-1 (CSCSSLMDKECVYFCHLDIIW; ends and bridges not checked; cysteine pairing not given here; UniProt P05305 53-73, looked up) [ET-1]	–	assembly of sarcomeres (Nk-TAg cells [1]): did not further induce the assembly of sarcomeres
IGF-I: insulin-like growth factor I (Roche)	no effect	–
CC1=C(/C=C/C(C)=C/C=C/C(C)=C\C(=O)O)C(C)(C)CCC1 [cis-retinoic acid]	no effect	–
angiotensin II (DRVYIHPF; Angiotensin-2; UniProt P01019 25-32, looked up)	–	assembly of sarcomeres (Nk-TAg cells [1]): did not further induce the assembly of sarcomeres
NC[C@H](O)c1ccc(O)c(O)c1 [NE, norepinephrine]	no effect	induction of sarcomere formation (NkL-TAg cells): further induction of sarcomere formation in some cells
Nc1ncn([C@@H]2O[C@H](CO)[C@@H](O)[C@H]2O)c(=O)n1 [5-azacytidine]	no effect	–
Cn1c(=O)c2c(ncn2C)n(C)c1=O [caffeine]	no effect	–
dynorphin-β	no effect	–
C[C@H](CCC(=O)O)C[C@H](C)C[C@H](C)C(=O)/C=C(\O)[C@H](C)C[C@H](C)C/C=C/[C@@H](C)[C@@H](O)[C@@H](C)[C@@H](O)C[C@@H]1CC[C@@](C)([C@H]2CC[C@@](C)([C@@H](C)O)O2)O1 [ionomycin]	no effect	–
[Cl-].[K+] [potassium chloride]	no effect	–
CNC[C@H](O)c1cccc(O)c1 [PE, phenylephrine]	no effect	assembly of sarcomeres (Nk-TAg cells [1]): did not further induce the assembly of sarcomeres; induction of sarcomere formation (NkL-TAg cells): further induction of sarcomere formation in some cells
CO[C@@]12[C@H](COC(N)=O)C3=C(C(=O)C(C)=C(N)C3=O)N1C[C@@H]1N[C@@H]12 [mitomycin C]	–	expression of α-actinin (Nk-TAg cells [1]; immunohistochemistry, in the cytoplasm as unassembled Z-lines, mitomycin C 10 mg/ml as printed): enhanced expression of α-actinin; proliferation of the Nk-TAg cells (Nk-TAg cells [2]): abated proliferation
